From patent publication US20100331203A1, “AROMATASE EXPRESSION PREDICTS SURVIVAL IN WOMEN WITH NON-SMALL CELL LUNG CANCER” (THE REGENTS OF THE UNIVERSITY OF CALIFORNIA, priority 2007, published 2010)
“Also recorded” adds a separate entry of the source.

Assays:
[1] = system: NSCLC cells; details: cited from earlier work
[2] = system: A549 lung tumor cells; assay: A549 non-small cell lung tumor xenografts in ovariectomized female athymic mice; format: in vivo; details: daily subcutaneous treatment, 5 animals per group, P<0.001
Description: FIG. 1. Growth-promoting effects of estrogen and aromatase substrate on non-small cell lung tumor xenografts in vivo. A549 lung tumor cells which express endogenous aromatase were implanted as subcutaneous xenografts in ovariectomized female athymic mice. Mice were then divided into 3 groups (5 animals per group). ▪ Animals were given daily subcutaneous treatments of the aromatase substrate androstenedione as before (see, e.g. Weinberg et al., Cancer Res 2005; 65:11287-91). […] Animals were given daily subcutaneous treatments of estradiol in a biodegradable binder as described (see, e.g. Pietras et al., Oncogene 1995; 10:2435-46). ▴ Control animals were supplemented with subcutaneous injection of vehicle alone.
In this study we examined aromatase, a key enzyme in the estrogen synthesis pathway. We hypothesized that expression of aromatase in lung cancer cells could result in a focal increase in estrogen levels and serve to promote tumor development and/or progression. […] To further assess estrogen signaling in NSCLC in vivo, we implanted A549 lung tumor cells which express endogenous aromatase in ovariectomized female athymic mice.
The protocol used for implantation of human lung tumor xenografts in nude mice was described previously (see, e.g. Weinberg et al., Cancer Res 2005; 65:11287-91; Pietras et al., Oncogene 1995; 10:2435-46). […]

[3] = system: human NSCLC xenograph; details: in vivo; cited from earlier work
[4] = exemestane cohort compared to women maintained on tamoxifen; cited from earlier work

C[C@]12CC[C@@H]3c4ccc(O)cc4CC[C@H]3[C@@H]1CC[C@@H]2O [estradiol, 17β-estradiol]
Gene transcription in NSCLC cells ([1]; in vitro and in vivo models): stimulates
Mitogenic effect on NSCLC cells ([1]; in vitro and in vivo models): mitogenic
Growth of A549 tumors compared to control animals [2]: significantly increased

C[C@]12CC[C@@H]3c4ccc(O)cc4C[C@@H](CCCCCCCCC[S+]([O-])CCCC(F)(F)C(F)(F)F)[C@H]3[C@@H]1CC[C@@H]2O (stereo partly shown) [Faslodex, fulvestrant]
Effect on 17β-estradiol-induced mitogenesis and gene transcription in NSCLC cells ([1]; ER antagonist): inhibited
Tumor formation in human NSCLC xenograph model [3]: inhibited

C=C1C[C@@H]2[C@H](CC[C@]3(C)C(=O)CC[C@@H]23)[C@@]2(C)C=CC(=O)C=C12 [exemestane]
Subsequent development of primary lung cancer [4]: reduction

C[C@]12CCC(=O)C=C1CC[C@@H]1[C@@H]2CC[C@]2(C)C(=O)CC[C@@H]12 [androstenedione]
Growth of A549 tumors compared to control animals [2]: significantly increased; also recorded: significantly enhanced tumor growth
